In BindingDB's records for doi:10.7270/Q29G5KF0 (The Scripps Research Institute Molecular Screening Center, 2013) one finds EC50 data, which are given here for ten compounds.

The target of the test is Kallikrein-7 (Homo sapiens, UniProt P49862).

A value given as a limit tells only on which side of the number the result lay.

Chain of Kallikrein-7 (P49862 whole entry): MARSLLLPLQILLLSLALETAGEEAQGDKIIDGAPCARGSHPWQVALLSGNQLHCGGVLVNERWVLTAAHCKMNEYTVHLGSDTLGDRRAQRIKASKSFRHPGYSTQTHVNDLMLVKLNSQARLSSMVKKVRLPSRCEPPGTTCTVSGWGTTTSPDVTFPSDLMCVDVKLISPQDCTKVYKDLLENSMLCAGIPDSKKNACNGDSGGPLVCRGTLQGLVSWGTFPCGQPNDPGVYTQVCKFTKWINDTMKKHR

As for `COc1ccccc1C1CC(c2ccc(C)cc2)=Nc2nnnn21` (stereo not given), the EC50 (commonly the concentration at which the effect is half-maximal) was found to be 23.5 µM. The value for `CC1=NC2=C(C(=O)CC(C)(C)C2)C(c2cccnc2)C1C#N` (stereo not given) [2,7,7-trimethyl-5-oxo-4-pyridin-3-yl-1,4,6,8-tetrahydroquinoline-3-carbonitrile] was greater than 69.5 µM; that for `COc1ccc(C2C(C(=O)N3CCOCC3)=C(C)N=C3CC(C)(C)CC(=O)C32)c(OC)c1` (stereo not given) [MLS000076547] was 52.4 µM. The value for `COC(=O)C1=CN=CC(C(=O)OC)C1c1ccc(C(=O)OC)cc1` (stereo not given) [MLS000111732] was greater than 69.5 µM; that for `COc1ccccc1C1CC(c2ccccc2)=Nc2nnnn21` (stereo not given) [SMR000107979] was 12.1 µM.

For `COCCN1Cc2cc(=O)n3c(nc4ccccc43)c2=C1N` [SMR000369291], the EC50 was greater than 69.5 µM. As to `COC(=O)c1ccc(C2C3=C(CC(C)(C)CC3=O)N=C(C)C2C#N)cc1` (stereo not given) [methyl 4-(3-cyano-2,7,7-trimethyl-5-oxo-1,4,6,8-tetrahydroquinolin-4-yl)benzoate], a half-maximal response (EC50) required 20.8 µM.

Compound `COC(=O)c1[nH]n(-c2ccccc2)c2c(O)n(-c3ccccc3OC)c(=O)c1-2` [methyl 5-(2-methoxyphenyl)-4,6-bis(oxidanylidene)-1-phenyl-3a,6a-dihydropyrrolo[3,4-c]pyrazole-3-carboxylate] gave an EC50 greater than 69.5 µM. `COC(=O)CC1=C(C(=O)OC)C(c2ccccc2[N+](=O)[O-])C(C#N)C(=N)O1` [methyl (4S)-6-amino-5-cyano-2-(2-methoxy-2-oxoethyl)-4-(2-nitrophenyl)-4H-pyran-3-carboxylate] registered an EC50 of 8.2 µM.

`C=CCOC(=O)C1=C(C)N=C(SCC(=O)NC(=O)OCC)C(C#N)C1c1cccnc1` (stereo not given) [prop-2-enyl 5-cyano-6-[2-(ethoxycarbonylamino)-2-oxidanylidene-ethyl]sulfanyl-2-methyl-4-pyridin-3-yl-1,4-dihydropyridine-3-carboxylate] showed an EC50 of 4.56 µM.
